Key:
[1] = target: T1, human D4 receptor (D4.2 sub-type) (Homo sapiens, UniProt P21917, DEL265-296); experiment: D4 receptor binding, displacement of 3H-spiperone; settings: for Ki: human D4 receptor, 3H-spiperone 0.25 nM
T1 construct: expressed in transfected cells; host or cells: HEK 298 (human embryonic kidney) cells, [sic]; homogenate of stably transfected cells
T1 sequence (P21917 with tags, fused parts or gaps DEL265-296): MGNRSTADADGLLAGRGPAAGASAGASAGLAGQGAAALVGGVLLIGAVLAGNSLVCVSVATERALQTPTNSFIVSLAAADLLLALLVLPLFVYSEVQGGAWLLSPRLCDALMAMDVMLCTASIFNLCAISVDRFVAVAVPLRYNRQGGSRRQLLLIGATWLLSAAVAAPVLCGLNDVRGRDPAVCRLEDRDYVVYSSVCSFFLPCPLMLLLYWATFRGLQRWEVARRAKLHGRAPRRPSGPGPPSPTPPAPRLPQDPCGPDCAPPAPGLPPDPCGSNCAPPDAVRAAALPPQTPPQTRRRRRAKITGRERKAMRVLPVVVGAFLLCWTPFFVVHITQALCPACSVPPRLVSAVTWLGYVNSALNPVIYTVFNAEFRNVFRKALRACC
Method: (§1) The potency of the test compound to reduce ^3 H-spiperone binding directly correlated to its binding affinity for the receptor.
The cells were then centrifuged in a Sorval centrifuge for 10 minutes, 5000 rpm (GS3 rotor) and the pellets quickly frozen in liquid nitrogen and stored at -80° C. until used in binding assay. When used in the assay, cells were thawed on ice for 20 minutes and then 10 mL of incubation buffer (50 mM Tris, 1 mM EDTA, 4 mM MgCl2, 5 mM KCl, 1.5 mM CaCl2, 120 mM NaCl, pH7.4) was added. […] Concentration of receptor protein was determined using the Pierce BCA assay.
(§2) Total Spiperone Binding Assay
(§3) The tubes were vortexed and incubated at room temperature for 90 minutes. The binding reaction was stopped by filtering using a Brandell Cell Harvester. The samples were filtered under vacuum over glass fibre filters (Whatman GF/B) presoaked for 2 hours in 0.3% polyethyleneimine (PEI) in 50 mM Tris buffer (pH7.4). The filters were then washed 3 times with 5 mL ice cold 50 mM Tris buffer (pH7.4). Individual filter disks were put in scintillation vials (Biovials, Bechman). Ready Protein Plus liquid scintillant (5 mL, Beckman) was added and the vials counted by liquid scintillation spectrophotometry (Beckman LSC 6500) after equilibrating for three hours at room temperature to determine total binding (BT).
Non-Specific Binding Assay for D4
The tubes were vortexed and incubated at room temperature for 90 minutes at which time the binding reaction was stopped by filtering. The filters were washed and counted using the same procedure as in the total binding assay described above to give the non-specific binding value (NSB).
(§4) Displacement Binding Assay
(§5) The incubation was started by the addition to 12×75 mm polypropylene tubes 500 μl (50 μg protein) membrane homogenate to a solution of 400 μl incubation buffer, 100 μl (0.25 final conc.) ^3 H-spiperone (90Ci/mmol, Amersham, diluted in borosilicate glass vial to) and […] of test compound that was prepared from 1 mM stock dissolved in DMSO and stored at -20° C. in polypropylene cryogenic storage vials until dilution in incubation buffer in borosilicate glass vials. The tubes were vortexed and incubated at room temperature for 90 minutes at which time the binding reaction was stopped by filtering. The filters were washed and counted using the same procedure as in the total binding assay described above to give the displacement binding value (BD).
IC50 was determined from an inhibition response curve, logit-log plot of %B/BO vs concentration of test compound.
(§6) Ki was calculated by the Cheng and Prustoff transformation: […]
(§7) where [L] is the concentration of ^3 H-spiperone used in the assay and KD is the to dissociation constant of ^3 H-spiperone determined independently under the same binding conditions.

[2] = target: T2, human D2 receptor (short isoform) (Homo sapiens, UniProt P14416); experiment: D2 receptor binding, displacement of 3H-spiperone (GH4C1 cells), for D2/D4 selectivity; settings: for D2/D4: D4 selectivity, ratio D2/D4
T2 construct: membrane homogenate, 3H-spiperone displacement
Method: as §1
GH4 C1 (rat pituitary) cells stably transfected with the human D2 receptor (short isoform) were grown in CO2 independent media in roller bottles (1500 cm^2) for 10 days. 100 μM ZnSO4 was added to the cells (the D2 promoter being zinc inducible). After 16 hours, fresh media was added to allow the cells to recover for 24 hours. The cells were harvested using versene and then centrifuged in a Sorval centrifuge for 10 minutes, at 5000 rpm (GS3 rotor). Pellets were quickly frozen in liquid nitrogen and stored at -80° C. until used in the binding assays. When used in the assay, cells were thawed on ice for 20 minutes. […] 10 mL of incubation buffer was added to the pellets which were then vortexed, resuspended and homogenized with a Kinematica CH-6010 Kriens-LU homogenizer for 15 seconds at setting 7. The receptor protein concentration was determined using the Pierce BCA assay.
as §2
as §3, with “The incubation was started by the addition of 500 μl (50 μg protein) membrane homogenate to a solution of 900 μl incubation buffer and 100 μl (0.25 nM final conc.) ^3 H-spiperone (90 Ci/mmol Amersham diluted in borosilicate glass vial) in 12×75 mm polypropylene tubes. The tubes” for “The tubes”
Non-Specific Binding Assay for D2
This assay employed the same procedures as the non-specific binding assay for D4 with the exception that 2 μM (final conc.) of (-) sulpiride (Research Chemicals Inc.) was used in place of dopamine.
as §4, §5
Specific binding in the absence of test compound (BO) was the difference of total binding (BT) minus non-specific binding (NSB) and similarly specific binding (in the presence of test compound) (B) was the difference of displacement binding (BD) minus non-specific binding (NSB). IC50 was determined from an inhibition response curve, logit-log plot of %B/BO vs concentration of test compound.
as §6, §7

D4 receptor = settings: background, cited from earlier work
[3] = compared with corresponding 4-methyl piperazine compound

T2 sequence (P14416 with tags, fused parts or gaps DEL242-270): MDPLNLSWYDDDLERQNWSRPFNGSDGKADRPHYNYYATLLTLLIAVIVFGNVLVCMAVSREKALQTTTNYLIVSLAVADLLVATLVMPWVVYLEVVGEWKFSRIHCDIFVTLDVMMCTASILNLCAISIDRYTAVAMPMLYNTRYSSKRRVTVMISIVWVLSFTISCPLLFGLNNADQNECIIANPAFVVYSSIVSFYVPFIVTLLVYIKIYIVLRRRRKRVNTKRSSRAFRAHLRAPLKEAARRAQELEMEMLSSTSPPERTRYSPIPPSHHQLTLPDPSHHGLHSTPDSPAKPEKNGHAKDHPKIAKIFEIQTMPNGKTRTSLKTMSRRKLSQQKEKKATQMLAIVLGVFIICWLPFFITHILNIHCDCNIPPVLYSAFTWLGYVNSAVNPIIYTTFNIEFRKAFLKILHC

SMILES | Ki [1] [nM] | D2/D4 [2] | D4 selectivity ([2]; compared with clozapine) | D4 affinity ([1]; compared with clozapine) | D4 selectivity [2, 3] | D4 affinity and selectivity [1, 3] | D4 affinity and selectivity ([1]; compared with clozapine) | preference for binding the D4 receptor relative to the D2 receptor (D4 receptor) | Ki (D4 receptor; read-out: Ki value (D4 affinity)) [nM]
Clc1ccc2c(c1)C(N1CCN(Cc3ccc4c(c3)OCO4)CC1)=Nc1cc(Cl)c(Cl)cc1N2 [2,7,8-trichloro-11-(4-piperonyl-1-piperazinyl)-5H-dibenzo[b,e][1,4]diazepine] | 149 | 15.7 | better D4 selectivity than clozapine | – | better D4selectivity than the corresponding 4-methyl piperazine compound | – | – | – | –
Clc1ccc2c(c1)C(N1CCN(Cc3ccc4c(c3)OCO4)CC1)=Nc1ccccc1N2 [2-Chloro-11-(4-piperonyl)-1-piperazinyl-5H-dibenzo[b,e][1,4]diazepine] | 76 | 7.3 | – | – | – | – | – | – | –
FC(F)(F)c1ccc2c(c1)C(N1CCN(Cc3ccc4c(c3)OCO4)CC1)=Nc1ccccc1N2 [2-trifluoromethyl-11-(4-piperonyl-1-piperazinyl)-5H-dibenzo[b,e][1,4]diazepine] | 73.5 | 1.9 | – | – | better D4selectivity than the corresponding 4-methyl piperazine compound | – | – | – | –
N#Cc1cccc2c1Oc1ccccc1N=C2N1CCN(Cc2ccc3c(c2)OCO3)CC1 [4-cyano-11-(4-piperonyl-1-piperazinyl)dibenz[b,f][1,4]oxazepine] | 119 | 82.1 | better D4 selectivity than clozapine | – | – | – | – | – | –
Clc1cc2c(cc1Cl)Nc1ccccc1C(N1CCN(Cc3ccc4c(c3)OCO4)CC1)=N2 [7,8-dichloro-11-(4-piperonyl-1-piperazinyl)-5H-dibenzo[b,e][1,4]diazepine] | 61 | 27.4 | better D4 selectivity than clozapine | – | better D4selectivity than the corresponding 4-methyl piperazine compound | – | – | – | –
Cc1cc2c(cc1C)Nc1ccccc1C(N1CCN(Cc3ccc4c(c3)OCO4)CC1)=N2 [7,8-dimethyl-11-(4-piperonyl)-1-piperazinyl)-5H-dibenzo[b,f][1,4]diazepine] | 266 | 14.1 | better D4 selectivity than clozapine | – | better D4selectivity than the corresponding 4-methyl piperazine compound | better D4 affinity and selectivity than the corresponding 4-methyl piperazine compound | – | – | –
Cc1ccc2c(c1)N=C(N1CCN(Cc3ccc4c(c3)OCO4)CC1)c1ccccc1O2 [8-methyl-11-(4-piperonyl)-1-piperazinyl)dibenz[b,f][1,4]oxazepine] | 143 | 9.8 | – | – | better D4selectivity than the corresponding 4-methyl piperazine compound | better D4 affinity and selectivity than the corresponding 4-methyl piperazine compound | – | – | –
c1ccc2c(c1)N=C(N1CCN(Cc3ccc4c(c3)OCO4)CC1)c1ccccc1N2 [11-(4-piperonyl)-1-piperazinyl-5H-dibenzo[b,e][1,4]diazepine] | 63 | 6 | – | – | better D4selectivity than the corresponding 4-methyl piperazine compound | better D4 affinity and selectivity than the corresponding 4-methyl piperazine compound | – | – | –
CN1CCN(C2=Nc3cc(Cl)ccc3Oc3ccccc32)CC1 [isoloxapine] | – | – | – | – | – | – | – | about 10 fold | ~20

Continued by falling Ki [1], values first:

Ki [1] [nM] | D2/D4 [2] | D4 selectivity ([2]; compared with clozapine) | D4 affinity ([1]; compared with clozapine) | SMILES | D4 selectivity [2, 3] | D4 affinity and selectivity [1, 3] | D4 affinity and selectivity ([1]; compared with clozapine) | preference for binding the D4 receptor relative to the D2 receptor (D4 receptor) | Ki (D4 receptor; read-out: Ki value (D4 affinity)) [nM]
57 | 99.2 | better D4 selectivity than clozapine | – | Clc1cccc2c1Oc1ccccc1N=C2N1CCN(Cc2ccc3c(c2)OCO3)CC1 [4-chloro-11-(4-piperonyl-1-piperazinyl)dibenz[b,f][1,4]oxazepine] | – | – | – | – | –
34 | 10.6 | better D4 selectivity than clozapine | – | Clc1cccc2c1Nc1ccccc1N=C2N1CCN(Cc2ccc3c(c2)OCO3)CC1 [4-chloro-11-(4-piperonyl-1-piperazinyl)-5H-dibenzo[b,e][1,4]diazepine] | – | – | – | – | –
24.5 | 53.2 | better D4 selectivity than clozapine | – | O=[N+]([O-])c1cccc2c1Oc1ccccc1N=C2N1CCN(Cc2ccc3c(c2)OCO3)CC1 [4-nitro-11-(4-piperonyl-1-piperazinyl)dibenz[b,f][1,4]oxazepine] | – | – | – | – | –
24 | 63 | better D4 selectivity than clozapine | – | Clc1ccc2c(c1)N=C(N1CCN(Cc3ccc4c(c3)OCO4)CC1)c1ccccc1S2 [8-chloro-11-(4-piperonyl)-1-piperazinyl)dibenzo[b,f][1,4]thiazepine] | better D4selectivity than the corresponding 4-methyl piperazine compound | better D4 affinity and selectivity than the corresponding 4-methyl piperazine compound | – | – | –
15.3 | 281 | better D4 selectivity than clozapine | better D4 affinity than clozapine | O=[N+]([O-])c1ccc2c(c1)C=C(N1CCN(Cc3ccc4c(c3)OCO4)CC1)c1ccccc1S2 [2-nitro-10-(4-piperonyl-1-piperazinyl)dibenzo[b,f]thiepine] | better D4selectivity than the corresponding 4-methyl piperazine compound | – | better D4 affinity and selectivity than clozapine | – | –
15 | 5.1 | – | better D4 affinity than clozapine | COc1ccc2c(c1)C(N1CCN(Cc3ccc4c(c3)OCO4)CC1)=Nc1ccccc1N2 [2-methoxy-11-(4-piperonyl-1-piperazinyl)-5H-dibenzo[b,e][1,4]diazepine] | better D4selectivity than the corresponding 4-methyl piperazine compound | better D4 affinity and selectivity than the corresponding 4-methyl piperazine compound | – | – | –
